Test system: 616215-338-R-J1-PDC tumor spheroids, viability
Assay: Anticancer human tumor 616215-338-R-J1-PDC patient-derived colon adenocarcinoma cell line growth inhibition [GQUAD]
Conditions: spheroids with HUVEC and MSC; for IC50: curve of first compound; for viability, T/C: stronger effect = lower value
Method in brief: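 Tumor cells were grown as complex spheroids with HUVEC endothelial cells and mesenchymal stem cells as stroma. G-quadruplex stabilizers were combined with targeted agents over half-log dilutions from near the clinical Cmax, or from 10 microM.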

[1] = second compound 0.0316 µM, first compound 0.000999 µM
[2] = second compound 0.0316 µM, first compound 0.00316 µM
[3] = second compound 0.0316 µM, first compound 0.00999 µM
[4] = second compound 0.0316 µM, first compound 0.0316 µM
[5] = second compound 0.0316 µM, first compound 0.0999 µM
[6] = second compound 0.0316 µM, first compound 0.316 µM
[7] = second compound 0.1 µM, first compound 0.000999 µM
[8] = second compound 0.1 µM, first compound 0.00316 µM
[9] = second compound 0.1 µM, first compound 0.00999 µM
[10] = second compound 0.1 µM, first compound 0.0316 µM
[11] = second compound 0.1 µM, first compound 0.0999 µM
[12] = second compound 0.1 µM, first compound 0.316 µM
[13] = second compound 0.316 µM, first compound 0.000999 µM
[14] = second compound 0.316 µM, first compound 0.00316 µM
[15] = second compound 0.316 µM, first compound 0.00999 µM
[16] = second compound 0.316 µM, first compound 0.0316 µM
[17] = second compound 0.316 µM, first compound 0.0999 µM
[18] = second compound 0.316 µM, first compound 0.316 µM
[19] = second compound 1 µM, first compound 0.000999 µM
[20] = second compound 1 µM, first compound 0.00316 µM
[21] = second compound 1 µM, first compound 0.00999 µM
[22] = second compound 1 µM, first compound 0.0316 µM
[23] = second compound 1 µM, first compound 0.0999 µM
[24] = second compound 1 µM, first compound 0.316 µM
[25] = second compound 3.16 µM, first compound 0.000999 µM
[26] = second compound 3.16 µM, first compound 0.00316 µM
[27] = second compound 3.16 µM, first compound 0.00999 µM
[28] = second compound 3.16 µM, first compound 0.0316 µM
[29] = second compound 3.16 µM, first compound 0.0999 µM
[30] = second compound 3.16 µM, first compound 0.316 µM
[31] = second compound 10 µM, first compound 0.000999 µM
[32] = second compound 10 µM, first compound 0.00316 µM
[33] = second compound 10 µM, first compound 0.00999 µM
[34] = second compound 10 µM, first compound 0.0316 µM
[35] = second compound 10 µM, first compound 0.0999 µM
[36] = second compound 10 µM, first compound 0.316 µM
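Note: spheroids exposed to agents for 7 days before readout.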
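Throughout, for viability, T/C: percent viability relative to DMSO vehicle control wells taken as 100%.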

SMILES: CCc1c2c(nc3ccc(O)cc13)-c1cc3c(c(=O)n1C2)COC(=O)[C@]3(O)CC + Cc1[nH]c2ccc(F)cc2c1-c1nc2c3cccnc3c3ncccc3c2[nH]1
- IC50 (second compound 0.0316 µM): 16.7 nM
- IC50 (second compound 0.1 µM): 9.2 nM
- IC50 (second compound 0.316 µM): 8.78 nM
- IC50 (second compound 1 µM): 12 nM
- IC50 (second compound 3.16 µM): 13.2 nM
- IC50 (second compound 10 µM): 7.87 nM
- viability, T/C [1]: 97.3%
- viability, T/C [2]: 81.9%
- viability, T/C [3]: 53.6%
- viability, T/C [4]: 43%
- viability, T/C [5]: 23.4%
- viability, T/C [6]: 12.8%
- viability, T/C [7]: 94.5%
- viability, T/C [8]: 100%
- viability, T/C [9]: 46.3%
- viability, T/C [10]: 33.1%
- viability, T/C [11]: 24.9%
- viability, T/C [12]: 19.9%
- viability, T/C [13]: 96.5%
- viability, T/C [14]: 90.3%
- viability, T/C [15]: 42.5%
- viability, T/C [16]: 32.3%
- viability, T/C [17]: 21.8%
- viability, T/C [18]: 13.8%
- viability, T/C [19]: 108%
- viability, T/C [20]: 76.8%
- viability, T/C [21]: 58.9%
- viability, T/C [22]: 28.5%
- viability, T/C [23]: 21.7%
- viability, T/C [24]: 16.4%
- viability, T/C [25]: 98.5%
- viability, T/C [26]: 86.5%
- viability, T/C [27]: 51.2%
- viability, T/C [28]: 35.2%
- viability, T/C [29]: 20.7%
- viability, T/C [30]: 14.5%
- viability, T/C [31]: 90.3%
- viability, T/C [32]: 74.9%
- viability, T/C [33]: 42.5%
- viability, T/C [34]: 24.5%
- viability, T/C [35]: 20.5%
- viability, T/C [36]: 13.4%

SMILES: Cc1cccc(N(C)C(=O)C2C(O)CCN2c2nc(C)cc(C(F)(F)F)c2C#N)c1 (stereo unspecified) + Cc1[nH]c2ccc(F)cc2c1-c1nc2c3cccnc3c3ncccc3c2[nH]1
- IC50 (second compound 0.0316 µM): > 10000 nM
- IC50 (second compound 0.1 µM): > 10000 nM
- IC50 (second compound 0.316 µM): > 10000 nM
- IC50 (second compound 1 µM): > 10000 nM
- IC50 (second compound 3.16 µM): > 10000 nM
- IC50 (second compound 10 µM): > 10000 nM
- viability, T/C [4]: 92.8%
- viability, T/C (second compound 0.0316 µM, first compound 0.1 µM): 102%
- viability, T/C [6]: 93.7%
- viability, T/C (second compound 0.0316 µM, first compound 1 µM): 87.6%
- viability, T/C (second compound 0.0316 µM, first compound 3.16 µM): 101%
- viability, T/C (second compound 0.0316 µM, first compound 10 µM): 104%
- viability, T/C [10]: 99.4%
- viability, T/C (second compound 0.1 µM, first compound 0.1 µM): 93.8%
- viability, T/C [12]: 99.1%
- viability, T/C (second compound 0.1 µM, first compound 1 µM): 104%
- viability, T/C (second compound 0.1 µM, first compound 3.16 µM): 99.6%
- viability, T/C (second compound 0.1 µM, first compound 10 µM): 95.5%
- viability, T/C [16]: 91%
- viability, T/C (second compound 0.316 µM, first compound 0.1 µM): 92.1%
- viability, T/C [18]: 99.4%
- viability, T/C (second compound 0.316 µM, first compound 1 µM): 100%
- viability, T/C (second compound 0.316 µM, first compound 3.16 µM): 97.6%
- viability, T/C (second compound 0.316 µM, first compound 10 µM): 96.6%
- viability, T/C [22]: 103%
- viability, T/C (second compound 1 µM, first compound 0.1 µM): 92%
- viability, T/C [24]: 96.7%
- viability, T/C (second compound 1 µM, first compound 1 µM): 93.9%
- viability, T/C (second compound 1 µM, first compound 3.16 µM): 105%
- viability, T/C (second compound 1 µM, first compound 10 µM): 103%
- viability, T/C [28]: 94.4%
- viability, T/C (second compound 3.16 µM, first compound 0.1 µM): 87%
- viability, T/C [30]: 96.5%
- viability, T/C (second compound 3.16 µM, first compound 1 µM): 91.6%
- viability, T/C (second compound 3.16 µM, first compound 3.16 µM): 104%
- viability, T/C (second compound 3.16 µM, first compound 10 µM): 107%
- viability, T/C [34]: 108%
- viability, T/C (second compound 10 µM, first compound 0.1 µM): 94.4%
- viability, T/C [36]: 96.2%
- viability, T/C (second compound 10 µM, first compound 1 µM): 88%
- viability, T/C (second compound 10 µM, first compound 3.16 µM): 107%
- viability, T/C (second compound 10 µM, first compound 10 µM): 86.5%

SMILES: Cn1ncnc1[C@H]1c2n[nH]c(=O)c3cc(F)cc(c23)N[C@@H]1c1ccc(F)cc1 + Cc1[nH]c2ccc(F)cc2c1-c1nc2c3cccnc3c3ncccc3c2[nH]1
- IC50 (second compound 0.0316 µM): > 316 nM
- IC50 (second compound 0.1 µM): > 316 nM
- IC50 (second compound 0.316 µM): > 316 nM
- IC50 (second compound 1 µM): > 316 nM
- IC50 (second compound 3.16 µM): > 316 nM
- IC50 (second compound 10 µM): > 316 nM
- viability, T/C [1]: 104%
- viability, T/C [2]: 98.2%
- viability, T/C [3]: 97%
- viability, T/C [4]: 92.5%
- viability, T/C [5]: 97.1%
- viability, T/C [6]: 94.7%
- viability, T/C [7]: 106%
- viability, T/C [8]: 89.1%
- viability, T/C [9]: 94.2%
- viability, T/C [10]: 102%
- viability, T/C [11]: 105%
- viability, T/C [12]: 87.4%
- viability, T/C [13]: 92.7%
- viability, T/C [14]: 103%
- viability, T/C [15]: 92.9%
- viability, T/C [16]: 103%
- viability, T/C [17]: 83.3%
- viability, T/C [18]: 95.3%
- viability, T/C [19]: 100%
- viability, T/C [20]: 95.7%
- viability, T/C [21]: 91.2%
- viability, T/C [22]: 104%
- viability, T/C [23]: 96%
- viability, T/C [24]: 95.6%
- viability, T/C [25]: 101%
- viability, T/C [26]: 97.3%
- viability, T/C [27]: 85.6%
- viability, T/C [28]: 93.2%
- viability, T/C [29]: 106%
- viability, T/C [30]: 87.3%
- viability, T/C [31]: 93.3%
- viability, T/C [32]: 95.4%
- viability, T/C [33]: 88%
- viability, T/C [34]: 78.5%
- viability, T/C [35]: 116%
- viability, T/C [36]: 78.6%

From PubChem BioAssay AID2060493 (Molecular Pharmacology Branch, DTP, NCI, 2025)
